Data on seven compounds can be found in ChEMBL document CHEMBL1135146, “8-Methoxyquinoline-5-carboxamides as PDE4 inhibitors: a potential treatment for asthma” (Bioorg Med Chem Lett, 2002).

One series deals with Phosphodiesterase 4 (Homo sapiens, UniProt P27815+Q08499+Q07343+Q08493). As to the kind of experiment: Inhibition of Phosphodiesterase 4 (PDE-4) from human U937 cells. To be noted: u-937. Format: cell-based.
The target in series [1] is Phosphodiesterase 3 (Homo sapiens) (UniProt Q14432+Q13370). As to the kind of experiment: Inhibition of Phosphodiesterase 3 (PDE3) from human platelet at 20 uM.
Series [2] is described as follows: Tested for the pharmacokinetic parameter in guinea pig, administered orally at 5 mg/kg. Format: ADME, organism-based, Cavia porcellus. To be noted: in vivo, po. Set-up: dose 5 mg/kg, route oral.
The nature of series [3]: Tested for the oral bioavailability of the compound. To be noted: guinea pig, in vivo, read-out: Bioavailabiility. Format: ADME, organism-based, Cavia porcellus.
The nature of series [4]: Compound at a dose 5 mg/kg was administered orally to guinea pig and the pharmacokinetic parameter (Cmax) was reported. To be noted: in vivo, po. Set-up: dose 5 mg/kg, route oral. Format: ADME, organism-based, Cavia porcellus.
Series [5] can be described thus: Tested for the half life period of the compound, intravenously. To be noted: guinea pig, in vivo, iv. It counts as ADME, organism-based, Cavia porcellus.

As a reminder, the IC50 is the concentration needed to halve the response being measured. A high value points to a need for much substance. With `COc1ccc(C(=O)Nc2ccncc2)c2cccnc12`, on Phosphodiesterase 4, the half-inhibitory concentration (IC50) was 1900 nM.

As a reminder, the inhibition is the change of the read-out against control, counted positive when it falls. Read a high inhibition as a strong effect. In turn, `COc1ccc(C(=O)Nc2c(Cl)cncc2Cl)c2[nH]c(C(F)(F)F)nc12` had an inhibition in series [1] of 43%. In addition, the concentration for half-maximal inhibition (IC50) at Phosphodiesterase 4 amounted to 120 nM.

`COc1ccc(C(=O)Nc2c(Cl)cncc2Cl)c2cc(C(C)=O)oc12` showed an IC50 on Phosphodiesterase 4 of 1 nM.

On to `COc1ccc(C(=O)Nc2c(Cl)cncc2Cl)c2c1nc(C(F)(F)F)n2C`, for which, in series [1], the inhibition was 11%. Also, the IC50 against Phosphodiesterase 4 stood at 290 nM.

For orientation: AUC means the area under the concentration-time curve, a measure of exposure. Lower therefore signals low exposure. For orientation: Cmax means the highest concentration seen after dosing. For orientation: half-life means the time needed for the level to fall by half in the phase considered. Lower therefore signals rapid decline. Regarding `COc1ccc(C(=O)Nc2c(Cl)cncc2Cl)c2cccnc12`, in series [2], the area under the curve (AUC) amounted to 925 ng·h/mL. Moreover, the bioavailability in series [3] amounted to 62%. In series [4], this compound yielded a Cmax of 473 ng/mL. Besides, in series [5], the half-life was 36 min. Moreover, at Phosphodiesterase 4, the IC50 is 170 nM.

Take `COc1ccc(C(=O)Nc2c(Cl)cncc2Cl)c2c1nc(C(C)=O)n2C`: the IC50 on Phosphodiesterase 4 was 480 nM.

Consider `COc1ccc(C(=O)Nc2ccncc2Cl)c2cccnc12`, for which, at Phosphodiesterase 4, the IC50 turned out to be 110 nM.
